Reference: patent publication US8865913B2, “Crystalline forms and processes for their preparation” (BIAL-Portela & C.A., S.A, priority 2010, dated 2014)

What was measured:
Type in all cases: physicochemical
[1] = Mechanical stress experiments (ball mill, dry/wet grinding)
Description: h. Mechanical Stress Experiments
Samples of starting material were placed in a Retsch ball mill and milled for two five-minute cycles without solvent (dry grinding) or with a small amount of solvent added (wet grinding) scraping the solids between the cycles. Ten-minute cycles were used for milling of a selected sample without addition of solvent.

[2] = Aqueous vapor stress experiments
Description: d. Aqueous Vapor Stress Experiments
Samples of starting material were exposed to ˜85% and ˜97% relative humidity at ambient temperature and ˜75% relative humidity at ˜40° C. for a specified duration.

[3] = Moisture sorption analysis (VTI SGA-100, 5 to 95% RH); settings: for hysteresis upon desorption: decreasing relative humidity; for hysteresis upon desorption / weight loss between ~95% and ~5% RH: desorption; for weight loss between ~95% and ~5% RH: ~95% to ~5% RH; for weight gain between ~5% and ~75% RH / total water uptake between ~5% and ~95% RH / weight gain between ~75% and ~95% RH: sorption; for weight gain between ~5% and ~75% RH: ~5% to ~75% RH; for total water uptake between ~5% and ~95% RH: ~5% to ~95% RH; for weight gain between ~75% and ~95% RH: ~75% to ~95% RH
Description: 9. Moisture Sorption Analysis
Moisture sorption/desorption data were collected on a VTI SGA-100 Vapor Sorption Analyzer. NaCl and PVP were used as calibration standards. Samples were not dried prior to analysis. Sorption and desorption data were collected over a range from 5 to 95% RH at 10% RH increments under a nitrogen purge. The equilibrium criterion used for analysis was less than 0.0100% weight change in 5 minutes with a maximum equilibration time of 3 hours. Data were not corrected for the initial moisture content of the samples.

[4] = Organic vapor stress experiments
Description: e. Organic Vapor Stress Experiments
Samples of starting material were exposed to vapors of a specified organic solvent for a given amount of time by placing open vials with solids tested into 20 mL vials containing solvent. Organic vapor stress experiments were conducted at ambient temperature.

[5] = Slurry experiments (incl. water activity slurries)
Description: Solutions were prepared by addition of a solvent or solvent mixture to the starting material with excess solids present. The mixtures were then agitated in sealed vials at either ambient or a set temperature. For agitation at subambient temperature, chilled solvent was added and the sample was immediately transferred to a freezer. After a given amount of time, the solids were isolated.

[6] = Heat stress experiments of amorphous material; settings: sample no. 3
Description: i. Heat Stress Experiments
Samples of amorphous material were placed in heating ovens at temperature set below or above the glass transition, or were agitated on a shaker block at elevated temperature for a given duration.

[7] = Slow cooling of the melt experiment; settings: 77° C., SC to RT; sample no. 3
Description: j. Slow Cooling of the Melt Experiment
Samples of amorphous material were heated on a hot plate at temperature above the glass transition. The sample was then allowed to slow cool to ambient by turning the heating device off.

Fc1cc(F)c2c(c1)C[C@@H](n1c(CCNCc3ccccc3)c[nH]c1=S)CO2 [Form A, 1-[(3R)-6,8-difluoro-3,4-dihydro-2H-1-benzopyran-3-yl]-1,3-dihydro-5-[2-[(phenylmethyl)amino]ethyl]-2H-imidazole-2-thione]
XRPD result after mechanical stress ([1]; Acetone, wet grinding, 2 × 5 min. cycles): Form A | XRPD result after mechanical stress ([1]; DMF, wet grinding, 2 × 5 min. cycles): Form A | XRPD result after mechanical stress ([1]; Dry grinding, 2 × 5 min. cycles): Form A (disordered) | XRPD result after mechanical stress ([1]; Dry grinding, 2 × 10 min. cycles): Form A (disordered) | XRPD result after mechanical stress ([1]; MEK, wet grinding, 2 × 5 min. cycles): Form A | XRPD result after mechanical stress ([1]; TFE, wet grinding, 2 × 5 min. cycles): Form A | XRPD result after mechanical stress ([1]; THF, wet grinding, 2 × 5 min. cycles): Form A | stability of the crystal form upon mechanical stress ([1]; summary statement): remains stable as a crystal form | XRPD result after aqueous vapor stress ([2]; 75% RH, 40° C., 2 days): Form A | XRPD result after aqueous vapor stress ([2]; 85% RH, 2 days): Form A | stability of the crystal form upon aqueous vapor stress ([2]; summary statement): remains stable as a crystal form | hygroscopicity ([3]; 5% to 95% RH): low hygroscopicity (a material that exhibits <0.5 wt(weight) % water uptake over a specified relative humidity range) | hysteresis upon desorption [3]: hysteresis between around 85% to around 45% RH | hysteresis upon desorption ([3]; listed as Lot 5): Small hysteresis | hysteresis upon desorption ([3]; listed as lot 5): small hysteresis | weight loss between ~95% and ~5% RH [3]: around 0.20 wt % | weight loss between ~95% and ~5% RH ([3]; listed as Lot 5): ~0.20 wt % | weight loss between ~95% and ~5% RH ([3]; listed as lot 5): ~0.20 wt % | weight change upon equilibration at ~5% RH ([3]; moisture sorption): negligible loss | weight change upon equilibration at ~5% RH ([3]; moisture sorption, listed as Lot 5): Negligible loss upon equilibration at ~5% RH | weight change upon equilibration at ~5% RH ([3]; moisture sorption, listed as lot 5): negligible weight loss | weight gain between ~5% and ~75% RH [3]: around 0.02 wt % | weight gain between ~5% and ~75% RH ([3]; listed as Lot 5): ~0.02 wt % gain between ~5% and ~75% RH | weight gain between ~5% and ~75% RH ([3]; listed as lot 5): ~0.02 wt % | total water uptake between ~5% and ~95% RH ([3]; listed as lot 5): ~0.21 wt % | weight gain between ~75% and ~95% RH [3]: around 0.19 wt % | weight gain between ~75% and ~95% RH ([3]; listed as Lot 5): ~0.19 wt % gain between ~75% and ~95% RH | weight gain between ~75% and ~95% RH ([3]; listed as lot 5): ~0.19 wt % | XRPD result after organic vapor stress ([4]; CHCl3, vapor stress, 11 days): Form A | XRPD result after organic vapor stress ([4]; EtOAc, vapor stress, 11 days): Form A

Fc1cc(F)c2c(c1)C[C@@H](n1c(CCNCc3ccccc3)c[nH]c1=S)CO2 [compound 2, 1-[(3R)-6,8-difluoro-3,4-dihydro-2H-1-benzopyran-3-yl]-1,3-dihydro-5-[2-[(phenylmethyl)amino]ethyl]-2H-imidazole-2-thione]
XRPD result of water activity slurry ([5]; amorphous starting material sample no. 2, Water, 50° C., 3 days, aw 1, sample no. 119): Material C (close to Form A + peaks) | XRPD result of water activity slurry ([5]; amorphous starting material sample no. 3, Acetone/water (25/75), aw 0.95, ambient, 6 days, sample no. 108): Form A^c | XRPD result of water activity slurry ([5]; amorphous starting material sample no. 3, Acetone/water (33/67), aw 0.93, ambient, 6 days, washed w/ acetone/water (33/67), sample no. 107): Form A^c | XRPD result of water activity slurry ([5]; amorphous starting material sample no. 3, Acetone/water (60/40), aw 0.89, ambient, 6 days, sample no. 106): Form A | XRPD result of water activity slurry ([5]; amorphous starting material sample no. 3, Acetone/water (82/18), aw 0.80, ambient, 6 days, sample no. 105): Form A | XRPD result of water activity slurry ([5]; amorphous starting material sample no. 3, Acetone/water (88/12), aw 0.73, ambient, 6 days, sample no. 104): Form A | XRPD result of water activity slurry ([5]; amorphous starting material sample no. 3, DMF/water (9/91), aw 0.98, RT, 5 days, washed w/ water, sample no. 115): Form A^c | XRPD result of water activity slurry ([5]; amorphous starting material sample no. 3, DMSO/water (10/90), aw 0.97, RT, 5 days, washed w/ water, sample no. 116): Form A^c | XRPD result of water activity slurry ([5]; amorphous starting material sample no. 3, EtOH/water (67/33), aw 0.82, 40° C., 2 days, sample no. 111): Form A^c | XRPD result of water activity slurry ([5]; amorphous starting material sample no. 3, Ethanol/water (20/80), aw 0.95, ambient, 6 days, sample no. 113): Form A^c | XRPD result of water activity slurry ([5]; amorphous starting material sample no. 3, Ethanol/water (47/53), aw 0.90, ambient, 6 days, sample no. 112): Form A^c | XRPD result of water activity slurry ([5]; amorphous starting material sample no. 3, Ethanol/water (70/30), aw 0.80, ambient, 6 days, sample no. 110): Form A^c | XRPD result of water activity slurry ([5]; amorphous starting material sample no. 3, Ethanol/water (80/20), aw 0.70, ambient, 6 days, sample no. 109): Form A^c | XRPD result of water activity slurry ([5]; amorphous starting material sample no. 3, IPA/water (50/50), aw 0.96, 40° C., 2 days, sample no. 114): Form A^c | XRPD result of water activity slurry ([5]; amorphous starting material sample no. 3, MeOH/water (50/50), aw 0.75, ambient, 6 days, washed w/ MeOH/water (50/50), sample no. 117): Form A^c | XRPD result of water activity slurry ([5]; amorphous starting material sample no. 3, THF/water (50/50), aw 1.03, ambient, 6 days, washed w/ THF/water (50/50), VO, RT, 1 h, sample no. 118): Form A^c | XRPD result of water activity slurry ([5]; amorphous starting material sample no. 3, Water, RT, 4 days, surfactant as wetting agent, aw 1, sample no. 121): Form A

Fc1cc(F)c2c(c1)C[C@@H](n1c(CCNCc3ccccc3)c[nH]c1=S)CO2 [Amorphous, 1-[(3R)-6,8-difluoro-3,4-dihydro-2H-1-benzopyran-3-yl]-1,3-dihydro-5-[2-[(phenylmethyl)amino]ethyl]-2H-Imidazole-2-thione]
XRPD result after aqueous vapor stress ([2]; 75% RH, 40° C., 1 day, starting material sample no. 3): Disordered, Form A | XRPD result after aqueous vapor stress ([2]; 85% RH, 3 days, starting material sample no. 14): No peaks | XRPD result after aqueous vapor stress ([2]; 97% RH, RT, 6 days, starting material sample no. 3): Amorphous/Form A mixture | moisture retained upon desorption ([3]; desorption between ~85% and ~15% RH): 3.6-5.8 wt % | hysteresis upon desorption ([3]; listed as Sample No. 2): large hysteresis | hysteresis upon desorption ([3]; listed as amorphous compound 2): hysteresis over a range of more than 50% RH | weight loss between ~95% and ~5% RH ([3]; listed as Sample No. 2): ~8.6 wt % | weight loss between ~95% and ~5% RH ([3]; listed as amorphous compound 2): around 8.6 wt % | hygroscopicity ([3]; moisture sorption, amorphous material): significant hygroscopicity (a material that exhibits ≧2.0 wt % water uptake over a specified RH range) | weight gain upon equilibration at ~5% RH ([3]; moisture sorption, listed as Sample No. 2): ~0.1 wt % | weight gain upon equilibration at ~5% RH ([3]; moisture sorption, listed as amorphous compound 2): around 0.08 wt % | weight gain between ~5% and ~75% RH ([3]; listed as Sample No. 2): approximately 1.2 wt % | weight gain between ~5% and ~75% RH ([3]; listed as amorphous compound 2): around 1.2 wt % | total water uptake between ~5% and ~95% RH ([3]; listed as Sample No. 2): ~9.9 wt % | weight gain between ~75% and ~95% RH ([3]; listed as Sample No. 2): ~8.7 wt % | weight gain between ~75% and ~95% RH ([3]; listed as amorphous compound 2): around 8.7 wt % | XRPD result after heat stress ([6]; 36° C., 1 day, heating with agitation): Disordered, Form A | XRPD result after heat stress ([6]; 40° C., 3 hrs): Amorphous/Form A mixture | XRPD result after heat stress ([6]; 50° C., 3 hrs): Amorphous/Form A mixture | XRPD result after heat stress ([6]; 60° C., 3 hrs): Disordered, Form A | XRPD result after heat stress ([6]; 80° C., 3 hrs): Form A^c | XRPD result after heat stress ([6]; 80° C., 1 day): Form A^c | XRPD result after organic vapor stress ([4]; Acetone, 1 day, starting material sample no. 2): Form A | XRPD result after organic vapor stress ([4]; CHCl3, 1 day, starting material sample no. 2): Form A | XRPD result after organic vapor stress ([4]; EtOAc, 1 day, starting material sample no. 2): Form B | XRPD result after organic vapor stress ([4]; IPE, 2 days, starting material sample no. 3): Form A | XRPD result after cooling from the melt [7]: Amorphous/Form A mixture
